The record followed here is patent publication US12065445B2, “CDK2 inhibitors and methods of using the same” (Cedilla Therapeutics, Inc., priority 2021, dated 2024).

Molecules are shown by their SMILES.

In this assay the test system is Kuramochi cells. Description: BrdU Cell Proliferation Assay. To be noted: read-out: BrdU - KURAMOCHI.1: IC50. It is filed as cell-based. Put shortly:
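Signal is 450 nm absorbance from a peroxidase anti-BrdU ELISA after a 1-hour BrdU label, background-subtracted and normalized to DMSO-treated wells. Kuramochi cells (2,000 per well) had been exposed to compound for 4 days. Dosing used a 10-point dose response in 3-fold steps.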
With `C[C@@H](NC(=O)[C@H]1CN(C(=O)c2cnn(Cc3ccccc3)c2)CC12CN(C(=O)[C@H]1CC1(C)C)C2)c1cccc(F)c1` [I-128B], the IC50 was above 10 µM.
In the case of `CNC(=O)[C@@H](NC(=O)[C@H]1CN(C(=O)c2cncs2)CC12CN(C(=O)[C@H]1CC1(C)C)C2)[C@@H](C)OCC1CCCCC1` [I-129B] it was above 10 µM.
For `CNC(=O)[C@@H](NC(=O)[C@H]1CN(C(=O)c2cnn(Cc3ccccc3)c2)CC12CN(C(=O)[C@H]1CC1(C)C)C2)[C@@H](C)OCC(C)(C)C` [I-130B] the value was above 10 µM.
With `CO[C@H]1COCC[C@@H]1NC(=O)[C@H]1CN(C(=O)c2cnn(Cc3ccccc3)c2)CC12CN(C(=O)[C@H]1CC1(C)C)C2` [I-131B], the IC50 is above 10 µM.
For `CC1(C)C[C@@H]1C(=O)N1CC2(CN(C(=O)c3cnn(Cc4ccccc4)c3)C[C@H]2C(=O)N[C@H]2CCc3cc(Cl)ccc32)C1` [I-133A] the value was above 10 µM.
As for `CNC(=O)[C@@H](NC(=O)[C@H]1CN(C(=O)c2cnn(Cc3ccc(F)cc3)c2)CC12CN(C(=O)[C@H]1CC1(C)C)C2)[C@@H](C)OCc1ccc(F)cc1` [I-136B], the half-maximal inhibitory concentration (IC50) was above 10 µM.
In the case of `CC1(C)C[C@@H]1C(=O)N1CC2(CN(C(=O)c3cnn(Cc4ccccc4)c3)C[C@H]2C(=O)Nc2ccc(Cc3ccccc3)nc2)C1` [I-139, (S)-6-(1-benzyl-1H-pyrazole-4-carbonyl)-N-(6-benzylpyridin-3-yl)-2-((S)-2,2-dimethylcyclopropane-1-carbonyl)-2,6-diazaspiro[3.4]octane-8-carboxamide] it was above 10 µM; in that of `CC1(C)C[C@@H]1C(=O)N1CC2(CN(C(=O)c3cnn(Cc4ccccc4)c3)C[C@@H]2C(=O)N[C@H]2C[C@@H]2c2cccc(Cl)c2)C1` [I-140B], above 10 µM; in that of `CNC(=O)[C@@H](NC(=O)[C@@H]1CN(C(=O)c2cnn(Cc3ccccc3)c2)CC12CN(C(=O)[C@H]1CC1(C)C)C2)[C@@H](C)OCC1CCC(C(F)(F)F)CC1` (stereo partly shown) [I-141A], 0.5 to 5 µM.
For `COC(=O)C1(NC(=O)[C@H]2CN(C(=O)c3cnn(Cc4ccccc4)c3)CC23CN(C(=O)[C@H]2CC2(C)C)C3)COC1` [I-142A] the value was above 10 µM; for `COC(=O)C1(NC(=O)[C@@H]2CN(C(=O)c3cnn(Cc4ccccc4)c3)CC23CN(C(=O)[C@H]2CC2(C)C)C3)COC1` [I-142B], above 10 µM; for `CNC(=O)[C@@H](NC(=O)[C@H]1CN(Cc2n[nH]c3ccccc23)CC12CN(C(=O)[C@H]1CC1(C)C)C2)[C@@H](C)OCc1ccccc1` [I-143], above 10 µM.
For the compound `CNC(=O)[C@@H](NC(=O)[C@@H]1CN(C(=O)c2cnn(Cc3ccccc3)c2)CC12CN(C(=O)[C@H]1CC1(C)C)C2)[C@@H](C)OCC1CCC1` [I-144A], the IC50 is above 10 µM.
Consider `CNC(=O)[C@@H](NC(=O)[C@H]1CN(C(=O)c2cnn(Cc3ccccc3)c2)CC12CN(C(=O)[C@H]1CC1(C)C)C2)[C@@H](C)OCC1CCC1` [I-144B], for which the IC50 was above 10 µM.
In the case of `CNC(=O)[C@@H](NC(=O)[C@@H]1CN(C(=O)c2cnc(COC)s2)CC12CN(C(=O)[C@H]1CC1(C)C)C2)[C@@H](C)OCC1CCCCC1` [I-145A], the IC50 fell in the range of 0.5 to 5 µM.
In the case of `CNC(=O)[C@@H](NC(=O)[C@H]1CN(C(=O)c2cnc(COC)s2)CC12CN(C(=O)[C@H]1CC1(C)C)C2)[C@@H](C)OCC1CCCCC1` [I-145B] it was above 10 µM; in that of `CNC(=O)[C@@H](NC(=O)[C@H]1CN(C(=O)c2nccs2)CC12CN(C(=O)[C@H]1CC1(C)C)C2)[C@@H](C)OCC1CCCCC1` [I-146], above 10 µM; in that of `CO[C@H]1COCC[C@@H]1NC(=O)[C@H]1CN(C(=O)c2cnn(Cc3ccccc3)c2)CC12CN(C(=O)[C@H]1CC1(C)C)C2` [I-148B], above 10 µM.
For `C[C@@H](OCC1CCCCC1)[C@H](NC(=O)[C@H]1CN(C(=O)c2cnn(Cc3ccccc3)c2)CC12CN(C(=O)[C@H]1CC1(C)C)C2)C(=O)N1CCC(F)(F)CC1` [I-149B] the value was above 10 µM; for `C[C@@H](OCC1CCCCC1)[C@H](NC(=O)[C@H]1CN(C(=O)c2cn[nH]c2)CC12CN(C(=O)[C@H]1CC1(C)C)C2)C(=O)N1CCCCC1` [I-151B], above 10 µM.
With `C[C@@H](OCC1CCCCC1)[C@H](NC(=O)[C@H]1CN(C(=O)c2cnn(Cc3ccccc3)c2)CC12CN(C(=O)[C@H]1CC1(C)C)C2)C(=O)N1CC(C)(C)C1` [I-153B], the IC50 is above 10 µM.
In the case of `C[C@@H](OCC1CCCCC1)[C@H](NC(=O)[C@H]1CN(C(=O)c2cn[nH]c2)CC12CN(C(=O)[C@H]1CC1(C)C)C2)C(=O)N1CCC(F)(F)CC1` [I-154B] it was above 10 µM; in that of `CNC(=O)[C@H](CCCC1CCCCC1)NC(=O)[C@@H]1CN(C(=O)c2cnn(Cc3ccccc3)c2)CC12CN(C(=O)[C@H]1CC1(C)C)C2` [I-155A], above 10 µM.
For `CNC(=O)[C@H](CCCC1CCCCC1)NC(=O)[C@H]1CN(C(=O)c2cnn(Cc3ccccc3)c2)CC12CN(C(=O)[C@H]1CC1(C)C)C2` [I-155B] the value was above 10 µM; for `CNC(=O)[C@@H](NC(=O)[C@@H]1CN(C(=O)c2cnc(C)s2)CC12CN(C(=O)[C@H]1CC1(C)C)C2)[C@@H](C)OCC1CCCCC1` [I-156A], 5 to 10 µM; for `CNC(=O)[C@@H](NC(=O)[C@H]1CN(C(=O)c2scnc2Cl)CC12CN(C(=O)[C@H]1CC1(C)C)C2)[C@@H](C)OCC1CCCCC1` [I-157B], above 10 µM.
`Cc1noc([C@H](C)NC(=O)[C@@H]2CN(C(=O)c3cnn(Cc4ccccc4)c3)CC23CN(C(=O)[C@H]2CC2(C)C)C3)n1` [I-158A]: the IC50 was above 10 µM.
For `Cc1noc([C@H](C)NC(=O)[C@H]2CN(C(=O)c3cnn(Cc4ccccc4)c3)CC23CN(C(=O)[C@H]2CC2(C)C)C3)n1` [I-158B] the value was above 10 µM.
In the case of `CNC(=O)[C@@H](NC(=O)C1CN(Cc2n[nH]c3ccccc23)CC12CN(C(=O)[C@H]1CC1(C)C)C2)[C@@H](C)OCc1ccccc1` (stereo partly shown) [I-159] it was above 10 µM; in that of `CNC(=O)[C@@H](NC(=O)[C@@H]1CN(C(=O)c2scnc2C)CC12CN(C(=O)[C@H]1CC1(C)C)C2)[C@@H](C)OCC1CCCCC1` [I-160A], 0.5 to 5 µM; in that of `CNC(=O)[C@@H](NC(=O)[C@H]1CN(C(=O)c2scnc2C)CC12CN(C(=O)[C@H]1CC1(C)C)C2)[C@@H](C)OCC1CCCCC1` [I-160B], above 10 µM.
In the case of `CNC(=O)[C@@H](NC(=O)[C@@H]1CN(C(=O)c2cnc(C(F)(F)F)s2)CC12CN(C(=O)[C@H]1CC1(C)C)C2)[C@@H](C)OCC1CCCCC1` [I-161A] it was above 10 µM; in that of `CNC(=O)[C@@H](NC(=O)[C@H]1CN(C(=O)c2cnc(C(F)(F)F)s2)CC12CN(C(=O)[C@H]1CC1(C)C)C2)[C@@H](C)OCC1CCCCC1` [I-161B], above 10 µM; in that of `CNC(=O)[C@@H](NC(=O)[C@H]1CN(C(=O)c2sc(COC)nc2C)CC12CN(C(=O)[C@H]1CC1(C)C)C2)[C@@H](C)OCC1CCCCC1` [I-162B], above 10 µM.
As for `CNC(=O)[C@@H](NC(=O)[C@H]1CN(C(=O)c2scnc2C(F)(F)F)CC12CN(C(=O)[C@H]1CC1(C)C)C2)[C@@H](C)OCC1CCCCC1` [I-163B], the IC50 was above 10 µM.
For `CNC(=O)[C@@H](NC(=O)[C@H]1CN(C(=O)c2cnn(Cc3ccccc3)c2)CC12CN(C(=O)[C@H]1CC1(C)C)C2)[C@H](C)OCC1CCCCC1` [I-165] the value was above 10 µM; for `CNC(=O)[C@@H](NC(=O)[C@H]1CN(C(=O)c2cnn(Cc3ccccc3)c2)CC12CN(C(=O)[C@H]1CC1(C)C)C2)[C@@H](C)OCC1CCCCCC1` [I-166B], 0.5 to 5 µM; for `CNC(=O)[C@@H](NC(=O)[C@H]1CN(C(=O)c2cnn(Cc3ccc(F)cc3)c2)CC12CN(C(=O)[C@H]1CC1(C)C)C2)[C@@H](C)OCC1CCC(F)(F)CC1` [I-167], above 10 µM.
For `CC1(C)C[C@@H]1C(=O)N1CC2(CN(C(=O)c3cnn(Cc4ccccc4)c3)C[C@@H]2C(=O)Nc2ccc(Cc3ccccc3)nc2)C1` [I-168] the value was above 10 µM; for `CNC(=O)[C@@H](NC(=O)[C@@H]1CN(C(=O)c2nccs2)CC12CN(C(=O)[C@H]1CC1(C)C)C2)[C@@H](C)OCC1CCCCC1` [I-169], above 10 µM; for `CNC(=O)[C@@H](NC(=O)[C@@H]1CN(C(=O)c2cnn(Cc3ccc(F)cc3)c2)CC12CN(C(=O)[C@H]1CC1(C)C)C2)[C@@H](C)OCC1CCC(F)(F)CC1` [I-170], 0.5 to 5 µM.
Regarding `CNC(=O)[C@@H](NC(=O)[C@@H]1CN(C(=O)c2cnn(Cc3ccccc3)c2)CC12CN(C(=O)[C@H]1CC1(C)C)C2)C(C)(C)SCc1ccccc1` [I-171A, (S)-6-(1-benzyl-1H-pyrazole-4-carbonyl)-N—((R)-3-(benzylthio)-3-methyl-1-(methylamino)-1-oxobutan-2-yl)-2-((S)-2,2-dimethylcyclopropane-1-carbonyl)-2,6-diazaspiro[3.4]octane-8-carboxamide], the IC50 is above 10 µM.
For `CNC(=O)[C@@H](NC(=O)[C@H]1CN(C(=O)c2cnn(Cc3ccccc3)c2)CC12CN(C(=O)[C@H]1CC1(C)C)C2)C(C)(C)SCc1ccccc1` [I-171B] the value was above 10 µM; for `C[C@@H]1C[C@H](C)CN(C(=O)[C@@H](NC(=O)C2CN(C(=O)c3cncs3)CC23CN(C(=O)[C@H]2CC2(C)C)C3)[C@@H](C)OCC2CCCCC2)C1` (stereo partly shown) [I-172], at most 0.5 µM.
For `CNC(=O)[C@@H](NC(=O)[C@H]1CN(C(=O)c2cnn(Cc3ccccc3)c2)CC12CN(C(=O)C(C)(C)C)C2)[C@@H](C)OCC1CCCCC1` [I-174B] the value was above 10 µM; for `C[C@@H](OCc1ccccc1)[C@H](NC(=O)[C@H]1CN(C(=O)c2cnn(Cc3ccccc3)c2)CC12CN(C(=O)[C@H]1CC1(C)C)C2)C(N)=O` [I-176B], above 10 µM; for `CNC(=O)[C@@H](NC(=O)[C@H]1CN(C(=O)c2cnc(CC3CC3)s2)CC12CN(C(=O)[C@H]1CC1(C)C)C2)[C@@H](C)OCC1CCCCC1` [I-177B], above 10 µM.
In the case of `CNC(=O)[C@@H](NC(=O)[C@H]1CN(C(=O)c2cnc(C3CC3)s2)CC12CN(C(=O)[C@H]1CC1(C)C)C2)[C@@H](C)OCC1CCCCC1` [I-178B] it was above 10 µM; in that of `CN(C(=O)[C@H]1CCCN(C(=O)[C@@H]2CN(C(=O)c3cnn(Cc4ccccc4)c3)CC23CN(C(=O)[C@H]2CC2(C)C)C3)C1)C1CCCCC1` [I-179], above 10 µM.
